The values below come from patent publication US20240043483A1, “TAU BIOSENSOR CELL LINES” (THE BOARD OF REGENTS OF THE UNIVERSITY OF TEXAS SYSTEM, priority 2020, published 2024).

What all share (format): cell-based, human
The test system of test [1] is P301S v2H HEK biosensor cells. The test is described as follows: Seeding assay, percent FRET positivity by flow cytometry, v2H biosensor cells. The conditions noted are these: for lower limit of detection (LLD), lowest quantity producing FRET positivity statistically distinguishable from background: v2H, T-test p<0.05. For orientation: A flow cytometer gives signals particle by particle.

The next test has as its system P301S v1 biosensor cells. The test is described as follows: Seeding assay, percent FRET positivity by flow cytometry, v1 (original) biosensor cells. The settings on record: T-test p<0.05. The protocol:
Wild-type full-length (2N4R) tau was synthesized and purified. 8 μM purified recombinant tau was incubated with 8 uM heparin and 10 mM DTT at 37 C for 48 h in 10 mM HEPES, 100 mM NaCL, PH 7.4. The quality of fibrils was verified by transmission electron microscopy.
(§1) P301S4 or P301S v2L or v2H HEK biosensor cells were plated in 96-well plates at 20,000 cells per well 24 hours before treatment. dilutions of recombinant tau fibrils or brain homogenates in Opti-MEM (Thermo Fisher), 30 μl total volume, or immunoprecipitation eluents 120 μl total volume, were allowed to come to room temperature. […] After 48 hours, cells were trypsinized and fixed in 2% PFA and suspended in flow cytometry buffer (1×HBSS, 1% FBS, 1 mM EDTA). percent FRET positivity was determined of each well by flow cytometry.
(§2) The sensitivity of v2L and v2H cells was first compared to the original line. synthetic fibrils based on exposure of recombinant tau protein to heparin were created. The fibrils were incubated with cells in the absence or presence of Lipofectamine 2000 for 48 h and quantified the percentage of FRET-positive cells using flow cytometry to determine the lower limit of detection. […] In the absence of cationic lipid reagent, 1.6 pM tau were detected in v2L cells and 0.78 pM tau in v2H cells (FIGS. 5A and 5B). […]

Another test has as its system HEK biosensor cells. Put plainly: Immunoprecipitation from spiked control CSF followed by seeding assay. The conditions noted are these: 1 ml control CSF spiked. The protocol: 50 μl of Dynabeads Protein A (Thermo Fisher) were washed per the manufacturer protocol and incubated with 10 μg of polyclonal antibody (TauA, Diamond Lab) against the first microtubule-binding repeat of tau for 1 hour at room temperature. washed beads were then added to 1 or 5 ml of human CSF and incubated with rotation overnight at 4° C. Captured proteins were eluted in low pH elution buffer (Pierce) and neutralized the buffer with 1:10 1M Tris pH 8.5 with a final volume of 120 μl.
as §1
To determine the lower limit of detection of tau seeds in CSF, control CSF were spiked with small quantities of AD frontal cortex protein (brain AD1) or recombinant tau fibrils. the AD seeds were concentrated and purified using a rabbit polyclonal antibody directed against tau RD (TauA).

The test system of test [2] is P301S v2L HEK biosensor cells. Put plainly: Seeding assay, percent FRET positivity by flow cytometry, v2L biosensor cells.
Description: A lentiviral FM5-YFP plasmid containing the tau segment 246 to 378 with the P301S mutation, was used as a template, where the human ubiquitin C (Ubc) promoter was replaced with a human cytomegalovirus (CMV) promoter, and the YFP sequence was replaced with a mCerulean 3 or mClover3 coding sequences (see FIGS. 1 and 2). The sequence linking the tau segment and the coding sequence of the fluorophore (Cer or Co) was optimized to the following sequence: GSAGSAAGSGEF (SEQ ID NO:41). Low passage HEK293T cells (P5) were thawed and passaged with antibiotic free media twice before being co-administration of lentivirus encoding tau RD(P301S)-Clo/Cer tau lentivirus. After four passages, single cells were cell sorted by FACS based on low or high signal for both mCerulean3 and mClover3, termed version 2 low (v2L) or version 2 high (v2H). Monoclonal colonies were expanded and characterized as described.
Wild-type full-length (2N4R) tau was synthesized and purified. […]
as §1, §2

“recombinant tau fibrils: Wild-type full-length (2N4R) recombinant tau incubated with heparin and DTT at 37 C for 48 h to form fibrils”: the “tau detected (lower limit of detection)” value in test [1] (v2H cells, absence of cationic lipid reagent, FIGS. 5A and 5B) is recorded as 0.78 pM; in test [2] (v2L cells, absence of cationic lipid reagent, FIGS. 5A and 5B), 1.6 pM. In addition, the “lower limit of detection (detected, monomer equivalent)” value is on record as 32 aM in test [1] (v2H cells, presence of Lipofectamine 2000, 48 h, FIGS. 4A and 4B); 10 fM in test [2] (v2L cells, presence of Lipofectamine 2000, 48 h, FIGS. 4A and 4B). In test [1] (v2H line versus original biosensor line), the “sensitivity versus the original biosensor cell line” value is on record as “more than 300 fold”. The “lower limit of detection (LLD), lowest quantity producing FRET positivity statistically distinguishable from background” value in test [1] (Lipofectamine seeding) came to 32 amol per sample; in test [1] (naked seeding) it was 0.78 pmol; with P301S v1 biosensor cells (v1, Lipofectamine seeding) it was 10 fmol per sample; in the test on P301S v1 biosensor cells (v1, naked seeding), 1.6 pmol. Also, the “seeding activity detected in spiked CSF after IP, lowest level (monomer equivalent)” value in the test on HEK biosensor cells (IP with TauA antibody, FIG. 7C) is 100 attomolar. Besides, the “seeding detected from spiked samples down to (tau monomer equivalent)” value with HEK biosensor cells (IP, FIG. 7) turned out to be 100 attomoles. For the same substance, in test [2] (v2L lines versus original biosensor line), the “sensitivity versus the original line” value was “approximately 10 fold”.
